Measured values: patent US20080027042A1, “Novel Aminopyridine Derivatives Having Aurora a Selective Inhibitory Action” (priority 2004, published 2008)
Values joined by “and” are separate entries in the source; they are usually repeats but may differ in a detail not shown here. Identical values can stand only once.

Columns and labels:
[1] = target: T1, Aurora B (Homo sapiens, UniProt Q96GD4); test: Aurora B inhibitory action (33P-ATP kinase assay, Kemptide substrate); format: biochemical; conditions: 100 μM ATP, 30° C., 20 minutes
T1 construct: histidine tag (N); made in house; host or cells: Escherichia coli BL21-CodonPlus(DE3)-RIL
Summary of the method: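 His-tagged Aurora B expressed in E. coli, reacted with 100 μM Kemptide, 100 μM ATP plus [γ-33P]ATP in Tris pH 7.4, 15 mM Mg acetate, 0.2 mM EDTA, 30 °C, 20 min. Peptide captured on P81 filters for scintillation counting; compounds added from DMSO dilutions.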

[2] = test system: Human cervical cancer cells (HeLa S3); test: Effect by combined use of drugs in cells (with paclitaxel), WST-8 method; format: cell-based; conditions: three days; for inhibition at 0.1 µM: HeLa S3, compound 0.1 μM alone; for inhibition at 0.3 µM: HeLa S3, compound 0.3 μM alone
Source text: Method for Judging the Effect by Combined Use of Drugs in Cells
Fetal calf serum (FCS) was purchased from Moregate Biotech, DMEM medium from Invitrogen Corp., paclitaxel (tradename: Taxol) from Sigma-Aldrich, Inc., and WST-8 from Kishida Chemical Co., Ltd.
(§1) Human cervical cancer cells (HeLa S3) were obtained from the American Type Culture Collection (ATCC).
(§2) c) Method of Judging the Effect
Cells were suspended in a DMEM medium containing 10% FCS, and the cell suspension was dispensed to two 96-well plastic plates at a rate of 750 cells/100 microliters per well. The plates were incubated overnight in 5% CO2-95% air at 37° C. A drug was subjected to graded dilution in dimethylsulfoxide and flurther diluted with DMSO or with a DMEM medium containing 10% FCS and also containing 2 nM paclitaxel. Then, the dilutions were each dispensed to one of the plates on which cells had been disseminated, at a rate of 100 microliters per well. The final concentration of paclitaxel at this stage was 1 nM. Also, the concentrations in the case of sole administration of the compound according to the invention were 0.03, 0.1, 0.3, 1 and 3 μM. The plates were incubated for further three days in 5% CO2-95% air at 37° C. Cell growth after incubation was measured by the WST-8 method (H. Tominaga, et al., Anal. Commun., 36, 47-50 (1999)). Here, the WST-8 method refers to a method in which 20 microliters of a WST-8 reagent solution is added to each well, incubation is conducted at 37° C. for 45 minutes, the plate is stirred, and the amount of formazan produced is measured by a colorimetric method to determine the inhibitory rate of the drug. The growth inhibitory effects of paclitaxel and of the compound according to the invention were determined, with the value obtained in sole treatment of DMSO being defined as 0%.

[3] = test system: Human cervical cancer cells (HeLa S3); test: Cell growth inhibitory effect, WST-8 method; format: cell-based; conditions: 72 h, HeLa S3, three days incubation
Source text: Method for Judging the Pharmaceutical Effect Using cells
Fetal calf serum (FCS) was purchased from Moregate Biotech, and DMEM medium was purchased from Invitrogen Corp. WST-8 was purchased from Kishida Chemical Co., Ltd.
as §1, §2
Cells were suspended in a DMEM medium containing 10% FCS, and the cell suspension was dispensed to a 96-well plastic plate at a rate of 750 cells/l 00 microliters per well. The plate was incubated overnight in 5% CO2-95% air at 37° C. A drug was subjected to graded dilution in dimethylsulfoxide and further diluted with a DMEM medium containing 10% FCS. Then, the dilution was dispensed to the plate on which cells had been disseminated, at a rate of 100 microliters per well. The plate was incubated for further three days in 5% CO2-95% air at 37° C. Cell growth after incubation was measured by the WST-8 method (H. Tominaga, et al., Anal. Commun., 36, 47-50 (1999)). Here, the WST-8 method refers to a method in which 20 microliters of a WST-8 reagent solution is added to each well, incubation is conducted at 37° C. for 45 minutes, the plate is stirred, and the amount of formazan produced is measured by a calorimetric method to determine the inhibitory rate of the drug. The concentration for 50% growth inhibition (EC50, IM) of the compound was determined.

[4] = target: T2, Aurora A (Homo sapiens, UniProt O14965); test: Aurora A inhibitory action (33P-ATP kinase assay, Kemptide substrate); format: biochemical; conditions: 20 μM ATP, 30° C., 20 minutes
T2 construct: histidine tag (N); made in house; host or cells: Escherichia coli BL21-CodonPlus(DE3)-RIL
T2 sequence (O14965 1-403): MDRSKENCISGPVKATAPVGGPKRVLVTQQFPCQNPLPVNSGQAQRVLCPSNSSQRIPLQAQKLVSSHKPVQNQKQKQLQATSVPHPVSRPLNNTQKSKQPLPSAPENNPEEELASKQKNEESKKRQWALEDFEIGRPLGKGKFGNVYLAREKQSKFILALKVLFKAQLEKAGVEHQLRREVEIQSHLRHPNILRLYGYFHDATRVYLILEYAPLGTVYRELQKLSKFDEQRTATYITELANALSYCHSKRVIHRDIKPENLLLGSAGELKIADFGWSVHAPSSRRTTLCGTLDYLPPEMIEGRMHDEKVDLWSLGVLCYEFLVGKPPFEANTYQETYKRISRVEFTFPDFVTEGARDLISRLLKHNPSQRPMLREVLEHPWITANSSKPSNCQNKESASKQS
Summary of the method: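 His-tagged Aurora A expressed in E. coli, Ni-purified; reaction in 50 mM Tris pH 7.4, 15 mM Mg acetate, 0.2 mM EDTA with 100 μM Kemptide, 20 μM ATP plus [γ-33P]ATP, 20 min at 30 °C. Phosphopeptide captured on P81 filters and counted by scintillation; DMSO control.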

[5] = HeLa S3, compound 0.1 μM + paclitaxel 1 nM
[6] = Homo sapiens, HeLa S3, 72 h, read-out: Cell growth inhibitory effect by sole administration of the compound of Example (%)
[7] = HeLa S3, compound 0.3 μM + paclitaxel 1 nM

T1 sequence (Q96GD4 whole entry): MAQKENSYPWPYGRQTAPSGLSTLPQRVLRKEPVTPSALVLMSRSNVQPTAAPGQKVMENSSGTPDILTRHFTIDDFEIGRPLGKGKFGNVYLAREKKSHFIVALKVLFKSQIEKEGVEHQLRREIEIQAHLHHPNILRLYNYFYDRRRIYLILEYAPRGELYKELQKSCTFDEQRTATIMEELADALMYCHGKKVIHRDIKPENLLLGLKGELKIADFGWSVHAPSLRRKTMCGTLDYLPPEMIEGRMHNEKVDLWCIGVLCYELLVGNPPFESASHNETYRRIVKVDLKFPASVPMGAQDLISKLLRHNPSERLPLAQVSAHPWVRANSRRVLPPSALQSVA

IC50 [1] | IC50 [3] | IC50 [4] | SMILES | also measured
0.44 µM | 11 µM | 0.00067 µM | O=C(c1cccc(Cl)c1F)N1CCN(Cc2cccc(Nc3nccs3)n2)CC1 [Example 5, 6-((4-(3-chloro-2-fluorobenzoyl)piperazin-1-yl)methyl)-N-thiazol-2-ylpyridin-2-amine] | Cell growth inhibitory effect by combined administration of paclitaxel and the compound of Example (%) [2, 5]: 72.8%; inhibition at 0.1 µM [2, 6]: 0%
0.2 µM | 0.4 µM | 0.0005 µM | O=C(c1cccc(Cl)c1Cl)N1CCN(Cc2cccc(Nc3nccs3)n2)CC1 [Example 6, 6-((4-(2,3-dichlorobenzoyl)piperazin-1-yl)methyl)-N-thiazol-2-ylpyridin-2-amine] | Cell growth inhibitory effect by combined administration of paclitaxel and the compound of Example (%) [2, 7]: 89.0%; inhibition at 0.3 µM [2, 6]: 19.6%
1.4 µM | 0.25 µM | 0.0019 µM | Cc1cccc(C(=O)N2CCN(Cc3cccc(Nc4nccs4)n3)CC2)c1F [Example 8, 6-((4-(2-fluoro-3-methylbenzoyl)piperazin-1-yl)methyl)-N-thiazol-2-ylpyridin-2-amine] | Cell growth inhibitory effect by combined administration of paclitaxel and the compound of Example (%) [2, 5]: 87.1%; inhibition at 0.1 µM [2, 6]: 4.6%
3.2 µM | 1.1 µM | 0.0012 µM | O=C(c1cccc(Cl)c1Cl)N1CCN(Cc2cccc(Nc3cc[nH]n3)n2)CC1 [Example 17, 6-((4-(2,3-dichlorobenzoyl)piperazin-1-yl)methyl)-N-1H-pyrazol-3-ylpyridin-2-amine] | Cell growth inhibitory effect by combined administration of paclitaxel and the compound of Example (%) [2, 7]: 73.8%; inhibition at 0.3 µM [2, 6]: 0%
1.5 µM | 3.5 µM | 0.0029 µM | O=C(c1cccc(C(F)F)c1F)N1CCN(Cc2cccc(Nc3cc[nH]n3)n2)CC1 [Example 22, 6-((4-(3-(difluoromethyl)-2-fluorobenzoyl)piperazin-1-yl)methyl)-N-1H-pyrazol-3-ylpyridin-2-amine] | Cell growth inhibitory effect by combined administration of paclitaxel and the compound of Example (%) ([2]; HeLa S3, compound 1.0 μM + paclitaxel 1 nM): 80.9%; inhibition at 1 µM ([2]; Homo sapiens, HeLa S3, 72 h, HeLa S3, compound 1.0 μM alone, read-out: Cell growth inhibitory effect by sole administration of the compound of Example (%)): 18.5%
0.77 µM | 0.8 µM | 0.0011 µM | Cc1cc(Nc2cccc(CN3CCN(C(=O)c4cccc(Cl)c4F)CC3)n2)n[nH]1 [Example 25, 6-((4-(3-chloro-2-fluorobenzoyl)piperazin-1-yl)methyl)-N-(5-methyl-1H-pyrazol-3-yl)pyridin-2-amine] | Cell growth inhibitory effect by combined administration of paclitaxel and the compound of Example (%) [2, 5]: 65.1%; inhibition at 0.1 µM [2, 6]: 0%
0.31 µM | 1.1 µM | 0.00052 µM | Cc1cc(Nc2cccc(CN3CCN(C(=O)c4cccc(Br)c4F)CC3)n2)n[nH]1 [Example 28, 6-((4-(3-bromo-2-fluorobenzoyl)piperazin-1-yl)methyl)-N-(5-methyl-1H-pyrazol-3-yl)pyridin-2-amine] | Cell growth inhibitory effect by combined administration of paclitaxel and the compound of Example (%) [2, 7]: 84.5%; inhibition at 0.3 µM [2, 6]: 0%
0.59 µM | 3.3 µM | 0.00097 µM | Cc1cc(Nc2cccc(CN3CCN(C(=O)c4cccc(C(F)(F)F)c4F)CC3)n2)n[nH]1 [Example 29, 6-((4-(2-fluoro-3-(trifluoromethyl)benzoyl)piperazin-1-yl)methyl)-N-(5-methyl-1H-pyrazol-3-yl)pyridin-2-amine] | Cell growth inhibitory effect by combined administration of paclitaxel and the compound of Example (%) [2, 7]: 77.3%; inhibition at 0.3 µM [2, 6]: 0%
1.3 µM |  | 0.0026 µM | O=C(c1cccc(F)c1F)N1CCN(Cc2cc(NCC(F)F)cc(Nc3nccs3)n2)CC1 [Example 100, 6-((4-(2,3-difluorobenzoyl)piperazin-1-yl)methyl)-N4-(2,2-difluoroethyl)-N^2-thiazol-2-ylpyridine-2,4-diamine] | 
0.25 µM |  | 0.00076 µM | O=C(c1cccc(F)c1F)N1CCN(Cc2cc(N3CCOCC3)cc(Nc3nccs3)n2)CC1 [Example 103, 6-((4-(2,3-difluorobenzoyl)piperazin-1-yl)methyl)-4-morpholin-4-yl-N-thiazol-2-ylpyridin-2-amine] | 
1 µM |  | 0.0014 µM | O=C(c1cccc(Cl)c1F)N1CCN(Cc2cc(-c3nn[nH]n3)cc(Nc3nccs3)n2)CC1 [Example 105, 6-((4-(3-chloro-2-fluorobenzoyl)piperazin-1-yl)methyl)-4-(2H-tetrazol-5-yl)-N-thiazol-2-ylpyridin-2-amine] | 
0.52 µM |  | 0.00042 µM | Cc1nc(-c2cc(CN3CCN(C(=O)c4cccc(Cl)c4F)CC3)nc(Nc3nccs3)c2)no1 [Example 109, 6-((4-(3-chloro-2-fluorobenzoyl)piperazin-1-yl)methyl)-4-(5-methyl-1,2,4-oxadiazol-3-yl)-N-thiazol-2-ylpyridin-2-amine] | 
0.75 µM |  | 0.00059 µM | Cc1noc(-c2cc(CN3CCN(C(=O)c4cccc(Cl)c4F)CC3)nc(Nc3nccs3)c2)n1 [Example 110, 6-((4-(3-chloro-2-fluorobenzoyl)piperazin-1-yl)methyl)-4-(3-methyl-1,2,4-oxadiazol-5-yl)-N-thiazol-2-ylpyridin-2-amine] | 
0.23 µM |  | 0.00081 µM | O=C(c1cccc(Cl)c1F)N1CCN(Cc2cccc(Nc3ncc(F)s3)n2)CC1 [Example 112, 6-((4-(3-chloro-2-fluorobenzoyl)piperazin-1-yl)methyl)-N-(5-fluorothiazol-2-yl)pyridin-2-amine] | 
 |  |  | CC(=O)O[C@H]1C(=O)[C@@]2(C)[C@H]([C@H](OC(=O)c3ccccc3)[C@]3(O)C[C@H](OC(=O)[C@H](O)[C@@H](NC(=O)c4ccccc4)c4ccccc4)C(C)=C1C3(C)C)[C@]1(OC(C)=O)CO[C@@H]1C[C@@H]2O [paclitaxel, reference compound] | Cell growth inhibitory effect by sole administration of paclitaxel (1 nM) (%) ([2]; HeLa S3, paclitaxel 1 nM alone): 37.8% and 45.4% and 43.3% and 36.8%; inhibition at 0.001 µM ([2]; Homo sapiens, HeLa S3, 72 h, HeLa S3, paclitaxel 1 nM alone, read-out: Cell growth inhibitory effect by sole administration of paclitaxel (1 nM) (%)): 44.1%

SMILES | IC50 [1] | IC50 [3] | IC50 [4] | also measured
O=C(O)C(F)(F)F.O=C(c1cccc(C(F)(F)F)c1F)N1CCN(Cc2cccc(Nc3cc[nH]n3)n2)CC1 [Example 19, 6-((4-(2-fluoro-3-(trifluoromethyl)benzoyl)piperazin-1-yl)methyl)-N-1H-pyrazol-3-ylpyridin-2-amine trifluoroacetate] | 0.53 µM | 0.92 µM | 0.0009 µM | Cell growth inhibitory effect by combined administration of paclitaxel and the compound of Example (%) [2, 5]: 77.6%; inhibition at 0.1 µM [2, 6]: 0%
